Source: patent publication US8236492B2 (priority 2003, dated 2012)

Tested on: ileal fluid dependant organism (IFDO)
Format: cell-based

SMILES | Log10 Reduction of Colonies | efficacy of LpH phenols tested at equivocal concentrations
Cc1ccc(O)cc1 [p-Cresol] | 3.7 | 
Oc1ccc(Cl)cc1Cc1cc(Cl)ccc1O [2,2-Methylenebis(4-chlorophenol)] | 3.8 | 
Oc1cc(Cl)ccc1Oc1ccc(Cl)cc1Cl [Triclosan] | 2.7 | 
Cc1cc(O)ccc1Cl [p-Chloro-m-cresol] | 4.3 | 
CCC(C)(C)c1ccc(O)cc1 [PTAP, p-tertiary-amylphenol] |  | less effective
Oc1c(Cl)cc(Cl)c(Cl)c1Cc1c(O)c(Cl)cc(Cl)c1Cl [Hexachlorophene] | 3.6 | 
Oc1ccc(Cl)cc1Cc1ccccc1 [o-Benzyl-p-chlorophenol] | 4.7 | optimal
Oc1ccccc1-c1ccccc1 [o-Phenylphenol] | 4.8 | optimal
Cc1ccc(C(C)C)c(O)c1 [Thymol] | 3.2 | 
Cc1cccc(O)c1C [2,3-Dimethylphenol] | 4.1 | 
Oc1ccccc1 [Phenol] | 3.6 | 
Oc1cc(Cl)c(Cl)cc1Cl [2,4,5-Trichlorophenol] | 4.9 | 
